#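 Five concentrations, 48 hours, 96-well plates. At the GI50, growth is halved. Definition used: TGI = concentration required for complete inhibition of growth.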
# How the values were obtained:
# Assay in all cases: NCI-60 cell line screen, 48 h
# TK-10 renal = tested on: TK-10 renal
# SK-MEL-2 melanoma = tested on: SK-MEL-2 melanoma
# HCT-15 colon = tested on: HCT-15 colon
# HCC-2998 colon = tested on: HCC-2998 colon
# DU-145 prostate = tested on: DU-145 prostate
# MDA-MB-468 breast = tested on: MDA-MB-468 breast
# HT29 colon = tested on: HT29 colon
# NCI-H226 lung = tested on: NCI-H226 lung
# U251 CNS = tested on: U251 CNS
# IGROV1 ovarian = tested on: IGROV1 ovarian
# SN12C renal = tested on: SN12C renal
# ACHN renal = tested on: ACHN renal
# OVCAR-5 ovarian = tested on: OVCAR-5 ovarian
# UO-31 renal = tested on: UO-31 renal
# COLO 205 colon = tested on: COLO 205 colon
# A498 renal = tested on: A498 renal
# OVCAR-8 ovarian = tested on: OVCAR-8 ovarian
# PC-3 prostate = tested on: PC-3 prostate
# SNB-19 CNS = tested on: SNB-19 CNS
# NCI-H522 lung = tested on: NCI-H522 lung
# OVCAR-3 ovarian = tested on: OVCAR-3 ovarian
# UACC-257 melanoma = tested on: UACC-257 melanoma
# MDA-MB-231 breast = tested on: MDA-MB-231 breast
# HOP-92 NSCLC = tested on: HOP-92 NSCLC
# BT-549 breast = tested on: BT-549 breast
# SR leukemia = tested on: SR leukemia
# MALME-3M melanoma = tested on: MALME-3M melanoma
# SF-295 CNS = tested on: SF-295 CNS
# A549 NSCLC = tested on: A549 NSCLC
# UACC-62 melanoma = tested on: UACC-62 melanoma
# SK-MEL-28 melanoma = tested on: SK-MEL-28 melanoma
# SNB-75 CNS = tested on: SNB-75 CNS
# K-562 leukemia = tested on: K-562 leukemia
# CAKI-1 renal = tested on: CAKI-1 renal
# NCI/ADR-RES ovarian = tested on: NCI/ADR-RES ovarian
# RXF 393 renal = tested on: RXF 393 renal
# NCI-H460 lung = tested on: NCI-H460 lung
# HCT-116 colon = tested on: HCT-116 colon
# CCRF-CEM leukemia = tested on: CCRF-CEM leukemia
# 786-0 renal = tested on: 786-0 renal
# LOX IMVI melanoma = tested on: LOX IMVI melanoma
# OVCAR-4 ovarian = tested on: OVCAR-4 ovarian
# SW-620 colon = tested on: SW-620 colon
# MOLT-4 leukemia = tested on: MOLT-4 leukemia
# HL-60(TB) leukemia = tested on: HL-60(TB) leukemia
# EKVX NSCLC = tested on: EKVX NSCLC
# RPMI-8226 leukemia = tested on: RPMI-8226 leukemia
# HS 578T breast = tested on: HS 578T breast
# SK-MEL-5 melanoma = tested on: SK-MEL-5 melanoma
# SF-539 CNS = tested on: SF-539 CNS
# MDA-MB-435 = tested on: MDA-MB-435
# NCI-H23 lung = tested on: NCI-H23 lung
# T-47D breast = tested on: T-47D breast
# KM12 colon = tested on: KM12 colon
# MCF7 breast = tested on: MCF7 breast
# HOP-62 NSCLC = tested on: HOP-62 NSCLC
# SF-268 CNS = tested on: SF-268 CNS
# M14 melanoma = tested on: M14 melanoma
smiles,measurement,setting,value
O=C(NO)c1ccc(-c2nc3ccc4[nH]ncc4c3c3c2CCCC3)cc1,GI50,TK-10 renal,261 nM
same,TGI,TK-10 renal,10.4 µM
same,GI50,SK-MEL-2 melanoma,247 nM
same,TGI,SK-MEL-2 melanoma,792 nM
same,GI50,HCT-15 colon,250 nM
same,TGI,HCT-15 colon,8.57 µM
same,GI50,HCC-2998 colon,300 nM
same,TGI,HCC-2998 colon,1390 nM
same,GI50,DU-145 prostate,407 nM
same,TGI,DU-145 prostate,> 34.9 µM
same,GI50,MDA-MB-468 breast,97.9 nM
same,TGI,MDA-MB-468 breast,279 nM
same,GI50,HT29 colon,455 nM
same,TGI,HT29 colon,9.84 µM
same,GI50,NCI-H226 lung,296 nM
same,TGI,NCI-H226 lung,3.09 µM
same,GI50,U251 CNS,287 nM
same,TGI,U251 CNS,4.97 µM
same,GI50,IGROV1 ovarian,318 nM
same,TGI,IGROV1 ovarian,3.11 µM
same,GI50,SN12C renal,281 nM
same,TGI,SN12C renal,3.39 µM
same,GI50,ACHN renal,193 nM
same,TGI,ACHN renal,5.96 µM
same,GI50,OVCAR-5 ovarian,479 nM
same,TGI,OVCAR-5 ovarian,3.93 µM
same,GI50,UO-31 renal,599 nM
same,TGI,UO-31 renal,8.48 µM
same,GI50,COLO 205 colon,255 nM
same,TGI,COLO 205 colon,1480 nM
same,GI50,A498 renal,254 nM
same,TGI,A498 renal,2640 nM
same,GI50,OVCAR-8 ovarian,300 nM
same,TGI,OVCAR-8 ovarian,13.5 µM
same,GI50,PC-3 prostate,424 nM
same,TGI,PC-3 prostate,> 67.2 µM
same,GI50,SNB-19 CNS,288 nM
same,TGI,SNB-19 CNS,1740 nM
same,GI50,NCI-H522 lung,154 nM
same,TGI,NCI-H522 lung,990 nM
same,GI50,OVCAR-3 ovarian,377 nM
same,TGI,OVCAR-3 ovarian,11 µM
same,GI50,UACC-257 melanoma,1290 nM
same,TGI,UACC-257 melanoma,> 23.2 µM
same,GI50,MDA-MB-231 breast,350 nM
same,TGI,MDA-MB-231 breast,1490 nM
same,GI50,HOP-92 NSCLC,426 nM
same,TGI,HOP-92 NSCLC,6.11 µM
same,GI50,BT-549 breast,187 nM
same,TGI,BT-549 breast,680 nM
same,GI50,SR leukemia,117 nM
same,GI50,MALME-3M melanoma,513 nM
same,TGI,MALME-3M melanoma,1730 nM
same,GI50,SF-295 CNS,880 nM
same,TGI,SF-295 CNS,9.76 µM
same,GI50,A549 NSCLC,671 nM
same,TGI,A549 NSCLC,> 100 µM
same,GI50,UACC-62 melanoma,237 nM
same,TGI,UACC-62 melanoma,1450 nM
same,GI50,SK-MEL-28 melanoma,299 nM
same,TGI,SK-MEL-28 melanoma,1030 nM
same,GI50,SNB-75 CNS,207 nM
same,TGI,SNB-75 CNS,875 nM
same,GI50,K-562 leukemia,495 nM
same,TGI,K-562 leukemia,> 100 µM
same,GI50,CAKI-1 renal,260 nM
same,TGI,CAKI-1 renal,6.81 µM
same,GI50,NCI/ADR-RES ovarian,1030 nM
same,TGI,NCI/ADR-RES ovarian,21 µM
same,GI50,RXF 393 renal,103 nM
same,TGI,RXF 393 renal,508 nM
same,GI50,NCI-H460 lung,486 nM
same,TGI,NCI-H460 lung,2490 nM
same,GI50,HCT-116 colon,119 nM
same,TGI,HCT-116 colon,33.8 µM
same,GI50,CCRF-CEM leukemia,361 nM
same,TGI,CCRF-CEM leukemia,> 100 µM
same,GI50,786-0 renal,307 nM
same,TGI,786-0 renal,1210 nM
same,GI50,LOX IMVI melanoma,306 nM
same,TGI,LOX IMVI melanoma,1320 nM
same,GI50,OVCAR-4 ovarian,706 nM
same,TGI,OVCAR-4 ovarian,6.38 µM
same,GI50,SW-620 colon,245 nM
same,TGI,SW-620 colon,> 77.9 µM
same,GI50,MOLT-4 leukemia,244 nM
same,TGI,MOLT-4 leukemia,942 nM
same,GI50,HL-60(TB) leukemia,339 nM
same,TGI,HL-60(TB) leukemia,2980 nM
same,GI50,EKVX NSCLC,480 nM
same,TGI,EKVX NSCLC,3.26 µM
same,GI50,RPMI-8226 leukemia,1650 nM
same,TGI,RPMI-8226 leukemia,> 44.6 µM
same,GI50,HS 578T breast,191 nM
same,TGI,HS 578T breast,1300 nM
same,GI50,SK-MEL-5 melanoma,240 nM
same,TGI,SK-MEL-5 melanoma,1020 nM
same,GI50,SF-539 CNS,168 nM
same,TGI,SF-539 CNS,455 nM
same,GI50,MDA-MB-435,340 nM
same,TGI,MDA-MB-435,1490 nM
same,GI50,NCI-H23 lung,316 nM
same,TGI,NCI-H23 lung,1180 nM
same,GI50,T-47D breast,196 nM
same,TGI,T-47D breast,1750 nM
same,GI50,KM12 colon,391 nM
same,TGI,KM12 colon,13.7 µM
same,GI50,MCF7 breast,344 nM
same,TGI,MCF7 breast,3.57 µM
same,GI50,HOP-62 NSCLC,253 nM
same,TGI,HOP-62 NSCLC,5.21 µM
same,GI50,SF-268 CNS,298 nM
same,TGI,SF-268 CNS,1600 nM
same,GI50,M14 melanoma,415 nM
same,TGI,M14 melanoma,1780 nM

# Source: PubChem BioAssay (NCI)
